Values quoted from earlier work in US20100150868A1, “Methods of Individually Optimizing Treatment for an Inflammation Associated Disease” (Tel HaShomer Medical Research Infrastructure and Services …, priority 2005, published 2010).

Tested on: TNF-α secretion of MOG stimulated PBMC
Details: in vitro, 10 μg/ml

## Glatiramer acetate [Copaxone]
  inhibitory effect on TNF-α producing cells compared with in-vivo experiments: same inhibitory effect
